Assay results reported in ChEMBL document CHEMBL1140568, “Trisubstituted pyrimidines as transient receptor potential vanilloid 1 (TRPV1) antagonists with improved solubility” (Bioorg Med Chem Lett, 2007).
Values after ≈ are worked out from the molar mass of the structure shown.

Key:
[1] = target: T1, Transient receptor potential cation channel subfamily V member 1 (Rattus norvegicus, UniProt O35433); experiment: Antagonist activity at rat TRPV1 expressed in CHO cells assessed inhibition of capsaicin induced calcium influx; assay type: functional, cell-based
[2] = target: T1, Transient receptor potential cation channel subfamily V member 1; experiment: Antagonist activity at rat TRPV1 expressed in CHO cells assessed inhibition of acid induced calcium influx; assay type: functional, cell-based
[3] = Aqueous solubility in 0.01N HCl; assay type: physicochemical
[4] = Aqueous solubility in PBS at pH 7; assay type: physicochemical
[5] = Aqueous solubility in fasted-state stimulated intestinal fluid at pH 6.8; assay type: physicochemical; settings: fasted-state simulated intestinal fluid
[6] = AUC (0 to infinity) in Sprague-Dawley rat at 1 mg/kg, iv; assay type: ADME, organism-based; parameters: time infinity, dose 1 mg/kg, route intravenous; settings: plasma
[7] = Clearance in Sprague-Dawley rat at 1 mg/kg, iv; assay type: ADME, organism-based; parameters: dose 1 mg/kg, route intravenous; settings: in vivo
[8] = Volume of distribution at steady state in Sprague-Dawley rat at 1 mg/kg, iv; assay type: ADME, organism-based; parameters: dose 1 mg/kg, route intravenous; settings: in vivo, read-out: Vdss
[9] = Half life in Sprague-Dawley rat at 1 mg/kg, iv; assay type: ADME, organism-based; parameters: dose 1 mg/kg, route intravenous; settings: in vivo
[10] = AUC (0 to infinity) in Sprague-Dawley rat at 5 mg/kg, po; assay type: ADME, organism-based; parameters: time infinity, dose 5 mg/kg, route oral; settings: plasma
[11] = Cmax in Sprague-Dawley rat at 5 mg/kg, po; assay type: ADME, organism-based; parameters: dose 5 mg/kg, route oral; settings: in vivo
[12] = Oral bioavailability in Sprague-Dawley rat at 5 mg/kg; assay type: ADME, organism-based; settings: in vivo

T1 sequence (O35433 whole entry): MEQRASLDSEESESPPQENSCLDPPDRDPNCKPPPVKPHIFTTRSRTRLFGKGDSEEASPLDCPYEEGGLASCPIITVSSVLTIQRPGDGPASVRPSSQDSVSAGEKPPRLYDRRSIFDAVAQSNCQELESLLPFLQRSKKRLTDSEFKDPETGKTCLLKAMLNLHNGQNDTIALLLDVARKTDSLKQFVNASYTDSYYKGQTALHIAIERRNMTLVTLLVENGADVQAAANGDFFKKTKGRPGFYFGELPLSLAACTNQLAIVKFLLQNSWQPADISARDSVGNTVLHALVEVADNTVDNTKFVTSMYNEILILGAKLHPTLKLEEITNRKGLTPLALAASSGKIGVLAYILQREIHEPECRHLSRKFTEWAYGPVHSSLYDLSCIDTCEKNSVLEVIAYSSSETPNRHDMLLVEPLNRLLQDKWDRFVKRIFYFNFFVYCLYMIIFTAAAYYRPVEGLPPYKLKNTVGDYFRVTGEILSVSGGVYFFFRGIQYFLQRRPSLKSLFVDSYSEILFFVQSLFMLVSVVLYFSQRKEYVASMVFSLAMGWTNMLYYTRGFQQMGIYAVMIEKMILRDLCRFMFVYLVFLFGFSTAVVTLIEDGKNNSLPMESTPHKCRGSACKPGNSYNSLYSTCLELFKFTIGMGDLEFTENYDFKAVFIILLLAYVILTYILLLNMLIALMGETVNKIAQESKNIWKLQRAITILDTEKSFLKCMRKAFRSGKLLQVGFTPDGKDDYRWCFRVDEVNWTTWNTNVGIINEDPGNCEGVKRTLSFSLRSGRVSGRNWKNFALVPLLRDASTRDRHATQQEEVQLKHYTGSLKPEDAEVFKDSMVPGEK

In the case of CC(=O)Nc1nc2c(Oc3cc(-c4ccc(C(F)(F)F)cc4)nc(N4CCC(O)CC4)n3)cccc2s1, the IC50 [1] is reported as 35 nM, the IC50 [2] is reported as 90 nM and the solubility [3] is reported as 21 µg/mL (≈ 39.7 µM). For the same molecule, the solubility [4] was 2 µg/mL (≈ 3.78 µM) and the solubility [5] was 12 µg/mL (≈ 22.7 µM).
Work on CC(=O)Nc1nc2c(Oc3cc(-c4ccc(C(F)(F)F)cc4)nc(N4CCC(C(=O)O)CC4)n3)cccc2s1 yielded an IC50 [1] of 410 nM, an IC50 [2] of 27 nM and a solubility [3] of at most 1 µg/mL. For the same molecule, the solubility [4] was 6 µg/mL (≈ 10.8 µM) and the solubility [5] was 3.4 µg/mL (≈ 6.1 µM).
For CC(=O)Nc1nc2c(Oc3cc(-c4ccc(C(F)(F)F)cc4)nc(N4CCCCC4)n3)cccc2s1, the IC50 [1] was 5.1 nM, the IC50 [2] was 1.5 nM and the solubility [3] was at most 1 µg/mL. The solubility [4] was at most 1 µg/mL and the solubility [5] was 2.8 µg/mL (≈ 5.45 µM).
Work on CC(=O)Nc1nc2c(Oc3cc(-c4ccc(C(F)(F)F)cc4)nc(C4=CCN(CC(C)C)CC4)n3)cccc2s1 yielded an AUC(0-inf) [6] of 258 ng·h/mL, a clearance [7] of 67.3 mL/min/kg and a Vd [8] of 6.38 L/kg. For the same molecule, the half-life [9] was 2 h.
CC(=O)Nc1nc2c(Oc3cc(-c4ccc(C(F)(F)F)cc4)nc(N)n3)cccc2s1 showed an IC50 [1] of 12 nM, an IC50 [2] of 4.8 nM and a solubility [3] of 4.7 µg/mL (≈ 10.6 µM). It also gave a solubility [4] of 8.8 µg/mL (≈ 19.8 µM) and a solubility [5] of 3.5 µg/mL (≈ 7.86 µM).
Molecule CC(=O)Nc1nc2c(Oc3cc(-c4ccc(C(F)(F)F)cc4)nc(N4CCOCC4)n3)cccc2s1 has an IC50 [1] of 28 nM, an IC50 [2] of 1.1 nM and a solubility [3] of at most 1 µg/mL. For the same molecule, the solubility [4] was at most 1 µg/mL and the solubility [5] was 1.4 µg/mL (≈ 2.72 µM).
In the case of CC(=O)Nc1nc2c(Oc3cc(-c4ccc(C(F)(F)F)cc4)nc(NCC4CCN(CC(C)C)CC4)n3)cccc2s1, the IC50 [1] is reported as 51 nM, the IC50 [2] is reported as 64 nM and the solubility [3] is reported as at least 200 µg/mL. For the same molecule, the solubility [4] was 9.4 µg/mL (≈ 15.7 µM) and the solubility [5] was at least 200 µg/mL.
Work on CC(=O)Nc1nc2c(Oc3cc(-c4ccc(C(F)(F)F)cc4)nc(NCC4CCCCN4CC(C)C)n3)cccc2s1 (configuration not stated) yielded an IC50 [1] of 6.1 nM, an IC50 [2] of 11 nM and a solubility [3] of at least 200 µg/mL. For the same molecule, the solubility [4] was 9.1 µg/mL (≈ 15.2 µM), the solubility [5] was 190 µg/mL (≈ 317 µM) and the AUC(0-inf) [6] was 351 ng·h/mL. It also gave a clearance [7] of 47.7 mL/min/kg, a Vd [8] of 8.29 L/kg and a half-life [9] of 2.6 h.
For CC(=O)Nc1nc2c(Oc3cc(-c4ccc(C(F)(F)F)cc4)nc(NC(C)c4ccccn4)n3)cccc2s1 (configuration not stated), the IC50 [1] was 1.5 nM, the IC50 [2] was 1.6 nM and the solubility [3] was at least 200 µg/mL. It also gave a solubility [4] of 6.7 µg/mL (≈ 12.2 µM), a solubility [5] of 150 µg/mL (≈ 272 µM) and an AUC(0-inf) [6] of 743 ng·h/mL. It also gave a clearance [7] of 22.5 mL/min/kg, a Vd [8] of 6.44 L/kg and a half-life [9] of 5.5 h. For the same molecule, the AUC(0-inf) [10] was 899 ng·h/mL, the Cmax [11] was 280 ng/mL and the bioavailability [12] was 24%.
Work on CC(=O)Nc1nc2c(Oc3cc(-c4ccc(C(F)(F)F)cc4)ncn3)cccc2s1 [AMG-517] yielded a solubility [3] of under 1 µg/mL and a solubility [4] of under 1 µg/mL.
